Values joined by “and” are separate entries in the source; they are usually repeats but may differ in a detail not shown here. Identical values can stand only once. Like-named read-outs stand apart in the source and are kept apart here.
Experiments:
HEK-293T cells = test: Cytotoxicity, MTT assay; assay type: cell-based, human; design: key to cell viability, mean: % viability = OD / OD of untreated control
Procedure: (§1) HeLa cells were seeded on flat-bottomed 96-well plates (5000 cells per well) and incubated at 37 °C overnight. Varying concentrations of P-CyPt, Pt^IVNPs or CDDP (0, 1, 2, 5, 10, 20, 30, 50, 100, and 200 μM) in DMEM medium (100 μL) were added. Cells were either incubated for 48 h, or firstly incubated with these three compounds for 2 h, washed with PBS and then incubated with refreshed blank DMEM medium for another 48 h. Then, 3-(4,5)-dimethylthiahiazo (-z-y1)−3,5-di-phenytetrazoliumromide (MTT, 50 μL, 1 mg /mL in PBS) was added into each well. The cells were kept at 37 °C for 4 h, and the solution in each well was carefully removed, followed by addition of dimethyl sulfoxide (DMSO, 150 μL). The absorbance (OD) at 490 nm in each well was acquired on the microplate reader (Tcan). The absorbance of non-treated blank cells (OD control) was used as the control. The percentage of cell viability was calculated by dividing OD to the OD control. […]
(§2) Supplementary Table 4. The IC50 (μM) value of different Pt drugs toward HeLa, HepG2 and HEK-293T cells.a
(§3) Compounds Condition IC50 (μM) HeLa HepG2 HEK-293T […]
(§4) a The IC50 values were measured by the MTT assay. Values denote mean ± s.d. (n = 3 independent experiments). b Cells were incubated with varying concentrations of CDDP, P-CyPt or PtIVNPs for […]
(§5) c Cells were incubated with varying concentrations of CDDP, P-CyPt or PtIVNPs for 2 h, and the mediums were removed, washed with PBS. Blank culture mediums were added, and the cells were kept incubation for another 48 h.

HepG2 cells = test: Cytotoxicity, MTT assay; assay type: cell-based, human; design: key to cell viability, mean: % viability = OD / OD of untreated control
Procedure: as §1, §2, §3, §4, §5

HeLa cells = test: Cytotoxicity, MTT assay; assay type: cell-based, human; design: key to cell viability, mean: % viability = OD / OD of untreated control
Procedure: as §1, §2, §3, §4, §5

[1] = Body weight of mice with orthotopic HepG2/Luc liver tumors; assay type: in vivo; details: individual samples, in g (unit assumed)

[NH2][Pt]([NH2])([Cl])[Cl] [CDDP, cisplatin]
IC50 (HEK-293T cells; HEK-293T, 2+48 h, individual samples, read-out: IC50-2+48h): > 200 µM | IC50 (HEK-293T cells; HEK-293T, 2+48 h, mean of 3 samples, read-out: IC50-2+48h): > 200 µM | cell viability, mean (HEK-293T cells; Supplementary Fig. 23 (c), concentration 1 μM): 95.9542 | cell viability, mean (HEK-293T cells; Supplementary Fig. 23 (c), concentration 2 μM): 90.0454 | cell viability, mean (HEK-293T cells; Supplementary Fig. 23 (c), concentration 5 μM): 78.4742 | cell viability, mean (HEK-293T cells; Supplementary Fig. 23 (c), concentration 10 μM): 63.7251 | cell viability, mean (HEK-293T cells; Supplementary Fig. 23 (c), concentration 20 μM): 47.669 | cell viability, mean (HEK-293T cells; Supplementary Fig. 23 (c), concentration 30 μM): 34.929 | cell viability, mean (HEK-293T cells; Supplementary Fig. 23 (c), concentration 50 μM): 24.7568 | cell viability, mean (HEK-293T cells; Supplementary Fig. 23 (c), concentration 100 μM): 14.7932 | cell viability, mean (HEK-293T cells; Supplementary Fig. 23 (c), concentration 200 μM): 8.255 | IC50 (HEK-293T cells; Supplementary Fig. 23 (c), read-out: IC50): 17.4 µM | cell viability, mean (HEK-293T cells; Supplementary Fig. 24 (c), concentration 1 μM): 98.6071 | cell viability, mean (HEK-293T cells; Supplementary Fig. 24 (c), concentration 2 μM): 97.4354 | cell viability, mean (HEK-293T cells; Supplementary Fig. 24 (c), concentration 5 μM): 96.6584 | cell viability, mean (HEK-293T cells; Supplementary Fig. 24 (c), concentration 10 μM): 94.4248 | cell viability, mean (HEK-293T cells; Supplementary Fig. 24 (c), concentration 20 μM): 94.1486 | cell viability, mean (HEK-293T cells; Supplementary Fig. 24 (c), concentration 30 μM): 93.57 | cell viability, mean (HEK-293T cells; Supplementary Fig. 24 (c), concentration 50 μM): 92.6006 | cell viability, mean (HEK-293T cells; Supplementary Fig. 24 (c), concentration 100 μM): 91.2991 | cell viability, mean (HEK-293T cells; Supplementary Fig. 24 (c), concentration 200 μM): 85.8671 | IC50 (HEK-293T cells; Supplementary Fig. 24 (c), read-out: IC50): > 200 µM | IC50 (HEK-293T cells; incubated 2 h, then blank medium 48 h, MTT, read-out: IC50 HEK-293T): > 200 µM | IC50 (HEK-293T cells; incubated 48 h, MTT, read-out: IC50 HEK-293T): 17.4 ± 1.05 µM | IC50 (HepG2 cells; HepG-2, 2+48 h, individual samples, read-out: IC50-2+48h): > 200 µM | IC50 (HepG2 cells; HepG-2, 2+48 h, mean of 3 samples, read-out: IC50-2+48h): > 200 µM | cell viability, mean (HepG2 cells; Supplementary Fig. 23 (b), concentration 1 μM): 95.3204 | cell viability, mean (HepG2 cells; Supplementary Fig. 23 (b), concentration 2 μM): 89.9797 | cell viability, mean (HepG2 cells; Supplementary Fig. 23 (b), concentration 5 μM): 77.7747 | cell viability, mean (HepG2 cells; Supplementary Fig. 23 (b), concentration 10 μM): 61.9896 | cell viability, mean (HepG2 cells; Supplementary Fig. 23 (b), concentration 20 μM): 45.1643 | cell viability, mean (HepG2 cells; Supplementary Fig. 23 (b), concentration 30 μM): 34.2775 | cell viability, mean (HepG2 cells; Supplementary Fig. 23 (b), concentration 50 μM): 23.521 | cell viability, mean (HepG2 cells; Supplementary Fig. 23 (b), concentration 100 μM): 12.914 | cell viability, mean (HepG2 cells; Supplementary Fig. 23 (b), concentration 200 μM): 8.323 | IC50 (HepG2 cells; Supplementary Fig. 23 (b), read-out: IC50): 16.3 µM | cell viability, mean (HepG2 cells; Supplementary Fig. 24 (b), concentration 1 μM): 97.7401 | cell viability, mean (HepG2 cells; Supplementary Fig. 24 (b), concentration 2 μM): 96.3386 | cell viability, mean (HepG2 cells; Supplementary Fig. 24 (b), concentration 5 μM): 94.9498 | cell viability, mean (HepG2 cells; Supplementary Fig. 24 (b), concentration 10 μM): 92.0343 | cell viability, mean (HepG2 cells; Supplementary Fig. 24 (b), concentration 20 μM): 89.3937 | cell viability, mean (HepG2 cells; Supplementary Fig. 24 (b), concentration 30 μM): 84.3715 | cell viability, mean (HepG2 cells; Supplementary Fig. 24 (b), concentration 50 μM): 79.6906 | cell viability, mean (HepG2 cells; Supplementary Fig. 24 (b), concentration 100 μM): 74.3564 | cell viability, mean (HepG2 cells; Supplementary Fig. 24 (b), concentration 200 μM): 60.8897 | IC50 (HepG2 cells; Supplementary Fig. 24 (b), read-out: IC50): > 200 µM | IC50 (HepG2 cells; incubated 2 h, then blank medium 48 h, MTT, read-out: IC50 HepG2): > 200 µM | IC50 (HepG2 cells; incubated 48 h, MTT, read-out: IC50 HepG2): 16.3 ± 1.69 µM | cell viability, mean (HeLa cells; Supplementary Fig. 23 (a), concentration 1 μM): 94.4173 | cell viability, mean (HeLa cells; Supplementary Fig. 23 (a), concentration 2 μM): 90.2597 | cell viability, mean (HeLa cells; Supplementary Fig. 23 (a), concentration 5 μM): 78.7193 | cell viability, mean (HeLa cells; Supplementary Fig. 23 (a), concentration 10 μM): 62.7353 | cell viability, mean (HeLa cells; Supplementary Fig. 23 (a), concentration 20 μM): 41.6693 | cell viability, mean (HeLa cells; Supplementary Fig. 23 (a), concentration 30 μM): 27.22 | cell viability, mean (HeLa cells; Supplementary Fig. 23 (a), concentration 50 μM): 19.0133 | cell viability, mean (HeLa cells; Supplementary Fig. 23 (a), concentration 100 μM): 10.56 | cell viability, mean (HeLa cells; Supplementary Fig. 23 (a), concentration 200 μM): 6.51 | IC50 (HeLa cells; Supplementary Fig. 23 (a), read-out: IC50): 14.5 µM | cell viability, mean (HeLa cells; Supplementary Fig. 24 (a), concentration 1 μM): 98.8285 | cell viability, mean (HeLa cells; Supplementary Fig. 24 (a), concentration 2 μM): 97.2876 | cell viability, mean (HeLa cells; Supplementary Fig. 24 (a), concentration 5 μM): 95.6072 | cell viability, mean (HeLa cells; Supplementary Fig. 24 (a), concentration 10 μM): 92.7687 | cell viability, mean (HeLa cells; Supplementary Fig. 24 (a), concentration 20 μM): 89.3445 | cell viability, mean (HeLa cells; Supplementary Fig. 24 (a), concentration 30 μM): 83.6169 | cell viability, mean (HeLa cells; Supplementary Fig. 24 (a), concentration 50 μM): 75.0853 | cell viability, mean (HeLa cells; Supplementary Fig. 24 (a), concentration 100 μM): 65.2268 | cell viability, mean (HeLa cells; Supplementary Fig. 24 (a), concentration 200 μM): 49.73 | IC50 (HeLa cells; Supplementary Fig. 24 (a), read-out: IC50): 178 µM | IC50 (HeLa cells; incubated 2 h, then blank medium 48 h, MTT, read-out: IC50 HeLa): 178 µM and > 150 µM | IC50 (HeLa cells; incubated 48 h, MTT, read-out: IC50 HeLa): 14.5 ± 1.6 µM | Body weight of mice (Supplementary Fig. 34) ([1]; time 0 d): 19.83 and 20.11 and 22.01 | Body weight of mice (Supplementary Fig. 34) ([1]; time 3 d): 18.72 and 20.66 and 21.22 | Body weight of mice (Supplementary Fig. 34) ([1]; time 6 d): 17.7 and 19.43 and 21.14 | Body weight of mice (Supplementary Fig. 34) ([1]; time 9 d): 17.17 and 18.45 and 20.33 | Body weight of mice (Supplementary Fig. 34) ([1]; time 12 d): 16.32 and 17.76 and 19.54 | Body weight of mice (Supplementary Fig. 34) ([1]; time 15 d): 16.24 and 17.17 and 19.09

Source: PMC9925730, “Controlled sequential in situ self-assembly and disassembly of a fluorogenic cisplatin prodrug for cancer theranostics” (Nature Communications, 2023)
